How the values were obtained:
[1] = test system: Staphylococcus aureus; experiment: Bactericidal activity against Staphylococcus aureus 1199B assessed as log reduction in bacterial count at 50 ug/mL measured after 8 hrs by time-kill kinetics assay; type: functional; conditions: dose 50 µg/ml
[2] = test system: Staphylococcus aureus; experiment: Antibacterial activity against Staphylococcus aureus 1199B measured after 24 hrs by Muller Hinton broth based MTT assay; type: functional

## CC[n+]1c(-c2ccccc2)c2cc(N)ccc2c2ccc(N)cc21.[Br-] [HOMIDIUM BROMIDE]
[1]
  Activity: >3 log10CFU/ml
[2]
  MIC: 50 µg/mL
